Entries after “also recorded” stand apart in the source; their conditions may differ. Where two headings read alike, the source gives them in different places.
Key:
[1] = tested on: imhMSC and prhMSC; details: for toxic effect on MSC (caspase3 activation without FasL): MSC on Collagen I and TNC, no FasL; for effect on survival advantage of TNC and Collagen I in the presence of FasL: prhMSC on Collagen I and TNC, inhibitor 30 minutes prior to and during 8 hours FasL; for cell death / caspase3 activation (FLICA): FasL or CHX and FasL, 8 hours (imhMSC) or 12 hours (prhMSC)
Experimental: MSCs are most susceptible to cell death via the Fas death pathway. […] Cells were also treated with a low concentration of the protein synthesis inhibitor cycloheximide (CHX) in addition to FasL. Cycloheximide, being a protein synthesis inhibitor, increases cell stress, imitating the starvation stress seen in vivo in a wound setting.
After preparation of coated surfaces and prior to seeding of MSC, neutralizing antibodies to the EGFL and FNL domains were added for 24 hours Immortalized hMSC were then seeded for 24 hours, kept treated or untreated with FasL for 8 hours, followed by a FLICA assay to test for caspase3 activation.
We next studied whether TNC contributes to survival of MSCs by sequestering FasL and prevention of FasL from binding its receptor Fas on MSC. We grew MSCs inside two cloning cylinders placed in wells of a 6-well dish, enclosing areas without any ECM, or with Collagen I and TNC, on which imhMSC were grown. One well had Collagen I and TNC coating surrounding the cloning cylinders, covered with media and FasL. The second well had only media with FasL surrounding the cloning cylinders, with no TNC.
The inhibitors were present during the entire 8 hours of FasL treatment, after which a FLICA assay was performed.

[2] = tested on: MSC; assay: MSC differentiation on coated surfaces (Von Kossa staining, adipocyte formation); format: cell-based, human
Description: We then studied whether TNC by itself, in the absence of specific differentiation cues, promotes MSC differentiation. We examined osteoblast or adipose cell formation from MSC grown on TNC and Collagen (Col I), in the presence of either proliferation or differentiation media. […] The matrix mix of TNC and Collagen I also did it interfere with differentiation.

[3] = tested on: EGFR; assay: immunofluorescence for phospho-EGFR and EEA1; format: cell-based, human
Experimental: Upon determining that TNC provided a survival effect on MSC in the presence of FasL, and that this mapped to the EGFL, we studied if Tenascin C was able to activate EGFR on the surface of MSC and if this activation was sustained. MSCs have low levels of EGFR, which may limit activation by the ultra-low affinity EGFL. In a number of studies, immortalized hMSC were plated on surfaces with Collagen I alone or Collagen I and TNC for 24 hours. After 24 hours, (considered 0 minute), immunofluorescence for phospho-EGFR (red fluorescence) and the early endosome marker EEA1 (green fluorescence) was done on these samples. […] Immortalized hMSC seeded on Collagen I were treated with EGF, the prototypal EGFR ligand, known to cause EGFR internalization for 15, 30 and 60 minutes prior to fixation, to induce phosphorylation of EGFR. At the same time points, immunofluorescence was done on cells grown on Collagen I and TNC.

[4] = tested on: Erk; assay: immunofluorescence for phospho-Erk; format: cell-based, human; details: imhMSC, 0, 30 and 60 minutes
Experimental: We examined that of Erk Immortalized hMSC were plated on surfaces with Collagen I alone or Collagen I and TNC for 24 hours. After 24 hours, (considered 0 minute), immunofluorescence for phospho-Erk (green fluorescence) was tested either with or without the EGFR inhibitor PD153035.

[5] = tested on: imhMSC and prhMSC; assay: MSC proliferation on extracellular matrix coatings; format: cell-based, human; details: 96 hours post-seeding
Description: During wound healing, endogenous MSC proliferation and differentiation are temporally distinct events. […] We tested if the extracellular matrix or ECM factors had any influence on MSC proliferation.

[6] = tested on: MSC; assay: inverted centrifugation assay of MSC adhesiveness on coated surfaces; format: cell-based, human; details: 2 hours post-seeding
Experimental: Tenascin-C or TNC may reduce the number of focal adhesions and decrease cell adhesiveness in several cell types. To test for MSC adhesiveness on TNC, an inverted centrifugation assay was performed 2 hours post-seeding MSC on […] and the number of cells attached after centrifugation was compared to number of cells attached on a similarly coated surface that had not undergone centrifugation. […] To increase adhesiveness of cells on TNC we coated mixed Collagen I, a matrix naturally occurring in the in vivo bone environment and one that promotes MSC attachment and spreading, in a 1:1 ratio with TNC for coating substrates. […] In a number of studies hereof, a combination of Collagen I and TNC was used to increase TNC adherence to cells.

[7] = tested on: MSC; assay: flow cytometric quantification of FITC/HLA+ cells, MSC survival in wound bed; format: in vivo, mouse; details: days 3, 7 and 21; WT and KO mice
Description: Male and Female FVB (Friend Virus B-Type) and C57BL/6 mice, between 7-9 weeks of age, were used in a number of studies. After shaving the hair on the back of the mice, 8 mm punch biopsies were created. Wounds were either left untreated or treated with commercially available NEW-SKIN® (a liquid bandage or wound protective barrier available from J&J of New Brunswick, N.J.), PEG-Polymer, PEG-Polymer+TNC, or PEG-Polymer+TNC−MSC. […]
Flow cytometric quantification of FITC/HLA+cells was used to detect MSC survival in the wound bed. […]
After shaving the hair on the back of the mice 8 mm punch biopsies were created. […] Animals were euthanized by CO2 inhalation and the wounds assessed. […] Each wound was measured and then removed from the animal, with unwounded skin taken from the contralateral dorsum as a control.
Flow Cytometry. Twelve-millimeter punch biopsies of the wound and 12-mm punch biopsies of unwounded regions were isolated for quantification of MSC engraftment in wounded skin at days 3, 7, 14, and 21. […] Flow cytometry was performed on an LSR II Cytometer (a flow cytometer system available from BD Biosciences of Franklin Lakes, N.J.) and subsequently analyzed using FOWJO® digital FACS software (available from Tree Star, Inc. of Ashland, Oreg.).

## COc1cccc(-c2cc(=O)c3ccccc3o2)c1N [PD98059, reference compound]
[1]
  toxic effect on MSC (caspase3 activation without FasL): did not have a toxic effect on cells
  effect on survival advantage of TNC and Collagen I in the presence of FasL: blocked the survival advantage

## Collagen I: a matrix naturally occurring in the in vivo bone environment that promotes MSC attachment and spreading
[2]; 30 days in proliferation media
  hydroxyapatite deposition (Von Kossa staining): neither Collagen I by itself nor TNC and Collagen I caused hydroxyapatite deposition
[3]; imhMSC, 24 hours after plating (0 minute)
  phospho-EGFR staining: did not show phospho-EGFR staining
[1]
  cell death / caspase3 activation (FLICA): did not show protection
[1]; listed as Collagen I alone
  cell death / caspase3 activation (FLICA): showed caspase 3 activation
[4]
  phospho-Erk activation: significantly less than that with TNC
[5]
  MSC proliferation relative to cell numbers initially plated: promote both imhMSC and prhMSC proliferation

## COc1cc2ncnc(Nc3cccc(Br)c3)c2cc1OC [PD153035, reference compound]
[1]
  toxic effect on MSC (caspase3 activation without FasL): did not have a toxic effect on cells
  effect on survival advantage of TNC and Collagen I in the presence of FasL: blocked the survival advantage
[4]
  phospho-Erk activation: reduced but not completely inhibited

## O=c1cc(N2CCOCC2)oc2c(-c3ccccc3)cccc12 [LY294002, reference compound]
[1]
  toxic effect on MSC (caspase3 activation without FasL): did not have a toxic effect on cells

## EGF: the prototypal EGFR ligand, known to cause EGFR internalization
[3]; imhMSC, 15, 30 and 60 minutes
  phospho-EGFR staining over time: stained positive for phospho-EGFR after 15 minutes of treatment; also recorded: very little phospho-EGFR signal

## TNC: the matrikine tenascin C, containing EGF-like and fibronectin like repeats
[2]; in the presence of adipogenic inducers
  adipocyte formation: did not prevent adipocyte formation
[2]; in the presence of differentiation media
  osteogenic differentiation: did not interfere with osteogenic differentiation
[2]; on its own, no inducers
  adipocyte formation: did not promote adipocyte formation on its own
[1]
  cell death / caspase3 activation (FLICA): did not show caspase3 activation
[1]; cloning cylinder experiment, imhMSC
  sequestering or neutralizing of FasL: neither sequestering nor neutralizing FasL
[1]; dose response, TUNEL and FLICA staining
  optimal TNC coating to promote MSC survival in the presence of FasL: 1 Lg/cm2
[4]
  phospho-Erk activation: activate phosho-Erk in MSC at 0, 30 and 60 minutes
[6]
  MSC adhesiveness: detach from surfaces after inverted centrifugation; also recorded: only half as adhesive as cells on Collagen I
[7]
  MSC survival in wound bed over time: survive more and longer

— patent US20160022872A1, “CELL-BASED COMPOSITIONS, CELL-BASED BANDAGE DEVICES AND SYSTEMS AND METHODS OF TREATMENT THEREWITH” (UNIVERSITY OF PITTSBURGH-OF THE COMMONWEALTH SYSTEM OF …, priority 2013, published 2016)
